Our source for the fold resistance values is patent US8969357B2, “Methods for treating HCV” (AbbVie Inc., priority 2011, dated 2015).

The test system of one assay is 1a-H77 replicons. The experiment in a line: Predominant resistant variants selected in genotype 1a replicons. The format is cell-based, HCV. How it is done:
(§1) Predominant resistant variants selected by Compound 1, 2, or 4 in genotype 1 replicons were also determined. For Compound 1, the predominant resistance variants in 1a-H77 replicons include R155K, D168A and D168V with fold resistance of 26, 48 and 128, respectively; and the predominant resistance variants in 1b-Con1 replicons include R155K, A156T and D168V with fold resistance of 48, 9 and 190, respectively. For Compound 2, the predominant resistance variants in 1a-H77 replicons include C316Y, M414T, Y448C and S556G with fold resistance of 1600, 36, 980 and 15, respectively; and the predominant resistance variants in 1b-Con1 replicons include C316Y, M414T and D559G with fold resistance of 1400, 26 and 100, respectively. For Compound 4, the predominant resistance variants in 1a-H77 replicons include M28T, M28V, Q30R, Y93C and Y93H with fold resistance of 9000, 60, 800, 1700 and 41000, respectively; and the predominant resistance variants in 1b-Con1 replicons include Y93H with fold resistance of 55.

For another assay, the system named is 1b-Con1 replicons. Description: Predominant resistant variants selected in genotype 1b replicons. Type of assay: cell-based, HCV. How it is done:
as §1
In general terms: Replicon systems follow genome replication, usually without infectious particles.

Take `Cc1cnc(C(=O)N[C@H]2CCCCC/C=C\[C@@H]3C[C@@]3(C(=O)NS(=O)(=O)C3CC3)NC(=O)[C@@H]3C[C@@H](Oc4nc5ccccc5c5ccccc45)CN3C2=O)cn1` [Compound 1, (2R,6S,13aS,14aR,16aS,Z)—N-(cyclopropylsulfonyl)-6-(5-methylpyrazine-2-carboxamido)-5,16-dioxo-2-(phenanthridin-6-yloxy)-1,2,3,5,6,7,8,9,10,11,13a,14,14a,15,16,16a-hexadecahydrocyclopropa[e]pyrrolo[1,2-a][1,4]diazacyclopentadecine-14a-carboxamide]: the fold resistance was 48 fold in the assay on 1a-H77 replicons (variant D168A); 128 fold in the assay with 1a-H77 replicons (variant D168V); 26 fold in the assay with 1a-H77 replicons (variant R155K); 9 fold with 1b-Con1 replicons (variant A156T); 190 fold in the assay on 1b-Con1 replicons (variant D168V); 48 fold in the assay with 1b-Con1 replicons (variant R155K).
`COc1c(-c2ccc3cc(NS(C)(=O)=O)ccc3c2)cc(-n2ccc(=O)[nH]c2=O)cc1C(C)(C)C` [Compound 2, N-(6-(3-tert-butyl-5-(2,4-dioxo-3,4-dihydropyrimidin-1(2H)-yl)-2-methoxyphenyl)naphthalen-2-yl)methanesulfonamide]: the fold resistance with 1a-H77 replicons (variant C316Y) worked out at 1600 fold; with 1a-H77 replicons (variant M414T), 36 fold; in the assay on 1a-H77 replicons (variant S556G), 15 fold; in the assay on 1a-H77 replicons (variant Y448C), 980 fold; in the assay on 1b-Con1 replicons (variant C316Y), 1400 fold; with 1b-Con1 replicons (variant D559G), 100 fold. Further, the fold resistance in the assay with 1b-Con1 replicons (variant M414T) worked out at 26 fold.
Consider `COC(=O)N[C@H](C(=O)N1CCC[C@H]1C(=O)Nc1ccc([C@@H]2CC[C@@H](c3ccc(NC(=O)[C@@H]4CCCN4C(=O)[C@@H](NC(=O)OC)C(C)C)cc3)N2c2ccc(C(C)(C)C)cc2)cc1)C(C)C` [Compound 4, dimethyl (2S,2′S)-1,1′-((2S,2′S)-2,2′-(4,4′-(2S,5S)-1-(4-tert-butylphenyl)pyrrolidine-2,5,diyl)bis(4,1-phenylene))bis(azanediyl)bis(oxomethylene)bis(pyrrolidine-2,1-diyl)bis(3-methyl-1-oxobutane-2,1-diyl)dicarbamate], for which the fold resistance in the assay with 1a-H77 replicons (variant M28T) is reported as 9000 fold; with 1a-H77 replicons (variant M28V), 60 fold; in the assay with 1a-H77 replicons (variant Q30R) it was 800 fold; in the assay with 1a-H77 replicons (variant Y93C), 1700 fold; in the assay on 1a-H77 replicons (variant Y93H) it was 41000 fold; with 1b-Con1 replicons (variant Y93H), 55 fold.
